Tested on: thrombus
Assay: Anti-thrombosis properties (metal helix in vena cava inferior, based on Friedman)
Assay type: in vivo, female Wistar rats
Conditions: from Table IV
Source text: The technique used is based on that disclosed by Friedman (Amer. J. Med. Sci., 253, 83, 1967). […] A 1.8 cm long sharp metal helix is introduced in the lumen of the vessel at the level of the renal fork and "screwed" toward the iliac veins. Five hours later, the animal is again anesthetized with ether. […] The helix, together with the thrombus it retains, is taken out after carefully opening the vena cava throughout the length involved; it is then dried by repeated dabbing with filter paper and is weighed a first time. Immediately thereafter, the helix is freed from its thrombus in a physiological saline bath, and is then again dried and weighed. The difference in weight gives the weight of the thrombus. It was found on histological examination that these were white thrombi.
Different groups of 10 rats each are treated by gastric intubation with one of the test derivatives, 48 hours, 24 hours and 2 hours prior to the implantation of the metal helix. Samples were taken five hours after said implantation.
Identical tests were carried out with dipyridamole and acetylsalicylic acid.

**Q.** For `CC(=O)Oc1ccccc1C(=O)O` [acetylsalicylic acid], which “anti-thrombosis activity (in words)” value is on record?
**A.** Its value is “little activity”.

**Q.** For `OCCN(CCO)c1nc(N2CCCCC2)c2nc(N(CCO)CCO)nc(N3CCCCC3)c2n1` [dipyridamole], which “anti-thrombosis activity (in words)” value is on record?
**A.** Its value is “no activity”.
